Laboratory results published in paper PMC2994747, “Molecular Characterization of c-Abl/c-Src Kinase Inhibitors Targeted against Murine Tumour Progenitor Cells that Express Stem Cell Markers” (PLoS ONE, 2010).

Legend:
Assay in all cases: Whole genome expression analysis (Affymetrix microarray)
Format in all cases: cell-based, human
CaCo2 = tested on: CaCo2
Experimental: (§1) The cells were harvested and RNA was isolated using RNeasy Mini Kit (Qiagen, Hilden, Germany) according to the instructions of the manufacturer. The isolated RNA (250 ng) was processed further using standard protocols as described recently with the exception of the 3′ IVT Express Kit (Affymetrix, High Wycombe, UK) that was utilized according to instructions. Quality control of cRNA was done with the Agilent 2100 Bioanalyzer (Agilent Tech according to manufacturer's protocols. Following fragmentation, cRNA of each sample was hybridized to Affymetrix GeneChip® Mouse Genome 430 2.0 or Human Genome U133 Plus 2.0 and scanned with an Affymetrix 3000 7G scanner.
(§2) The resultant data was normalized by Probe Logarithmic Intensity Error Estimation (PLIER) algorithm. Statistical analysis was carried out with the ArrayTrack software (National Center for Toxicological Research/FDA, Jefferson, AR, USA) using SAM algorithm.

HepG2 = tested on: HepG2
Experimental: as §1, §2

A549 = tested on: A549
Experimental: as §1, §2

[1] = IC50 concentration, 96 h, SAM FDR<0.01, FC>2

Fc1ccccc1CNc1ncnc2c1cnn2CC(Cl)c1ccc(Br)cc1 (centres unmarked) [Si162]
Ceacam6 (carcinoembryonic antigen-related cell adhesion molecule 6) regulated gene, Si162 vs Ktr FC (CaCo2): 1.49
Mmp1 (matrix metallopeptidase 1 (interstitial collagenase)) regulated gene, Si162 vs Ktr FC (CaCo2): 1.71
Pmaip1 (phorbol-12-myristate-13-acetate-induced protein 1 (Noxa)) regulated gene, Si162 vs Ktr FC (CaCo2): 1.12
Tuba1a (tubulin, alpha 1a) regulated gene, Si162 vs Ktr FC (CaCo2): 1.01
Vim (vimentin) regulated gene, Si162 vs Ktr FC (CaCo2): 1.80
Significantly differentially regulated genes, downregulated (number) (CaCo2; [1]): 6
Significantly differentially regulated genes, upregulated (number) (CaCo2; [1]): 75
Akt2 (v-akt murine thymoma viral oncogene homolog 2) regulated gene, Si162 vs Ktr FC (HepG2): -4.47
Bcl2l1 (BCL2-like 1) regulated gene, Si162 vs Ktr FC (HepG2): 1.08
Birc5 (baculoviral IAP repeat-containing 5) regulated gene, Si162 vs Ktr FC (HepG2): -4.98
Capn2 (calpain 2, (m/II) large subunit) regulated gene, Si162 vs Ktr FC (HepG2): 2.34
Casp3 (caspase 3, apoptosis-related cysteine peptidase) regulated gene, Si162 vs Ktr FC (HepG2): 1.08
Casp6 (caspase 6, apoptosis-related cysteine peptidase) regulated gene, Si162 vs Ktr FC (HepG2): 1.01
Cdc2 (cell division cycle 2 (Cdk1)) regulated gene, Si162 vs Ktr FC (HepG2): -5.34
Cdh1 (cadherin 1, type 1, E-cadherin (epithelial)) regulated gene, Si162 vs Ktr FC (HepG2): 1.32
Cdkn1a (cyclin-dependent kinase inhibitor 1A (p21Cip1)) regulated gene, Si162 vs Ktr FC (HepG2): 1.62
Cdkn2a (cyclin-dependent kinase inhibitor 2A (p16)) regulated gene, Si162 vs Ktr FC (HepG2): 2.03
Cdkn2b (cyclin-dependent kinase inhibitor 2B (p15)) regulated gene, Si162 vs Ktr FC (HepG2): 3.43
Cenpa (centromere protein A) regulated gene, Si162 vs Ktr FC (HepG2): -4.35
Egfr (epidermal growth factor receptor) regulated gene, Si162 vs Ktr FC (HepG2): 1.36
Fas (Fas (TNF receptor superfamily, member 6)) regulated gene, Si162 vs Ktr FC (HepG2): 2.46
Grb10 (growth factor receptor-bound protein 10) regulated gene, Si162 vs Ktr FC (HepG2): 1.12
Jun (jun oncogene) regulated gene, Si162 vs Ktr FC (HepG2): 1.14
Mdm2 (Mdm2 p53 binding protein homolog (mouse)) regulated gene, Si162 vs Ktr FC (HepG2): 1.15
Mmp3 (matrix metallopeptidase 3 (stromelysin 1, progelatinase)) regulated gene, Si162 vs Ktr FC (HepG2): 4.17
Pdgfrb (platelet-derived growth factor receptor, beta polypeptide) regulated gene, Si162 vs Ktr FC (HepG2): -4.81
Pmaip1 (phorbol-12-myristate-13-acetate-induced protein 1 (Noxa)) regulated gene, Si162 vs Ktr FC (HepG2): 1.37
Tgfb1i1 (transforming growth factor beta 1 induced transcript 1) regulated gene, Si162 vs Ktr FC (HepG2): 1.86
Tuba1a (tubulin, alpha 1a) regulated gene, Si162 vs Ktr FC (HepG2): 4.28
Differentially expressed genes, total (number) (HepG2; IC50 concentration, 96 h): more than 1400
Significantly differentially regulated genes, downregulated (number) (HepG2; [1]): 707
Significantly differentially regulated genes, upregulated (number) (HepG2; [1]): 717
Acta2 (actin, alpha 2, smooth muscle, aorta) regulated gene, Si162 vs Ktr FC (A549): 2.46
Birc5 (baculoviral IAP repeat-containing 5) regulated gene, Si162 vs Ktr FC (A549): -6.60
Capn12 (calpain 12) regulated gene, Si162 vs Ktr FC (A549): 1.16
Ccna2 (cyclin A2) regulated gene, Si162 vs Ktr FC (A549): -6.93
Ccnb1 (cyclin B1) regulated gene, Si162 vs Ktr FC (A549): -5.43
Ccnb2 (cyclin B2) regulated gene, Si162 vs Ktr FC (A549): -6.15
Cdc2 (cell division cycle 2 (Cdk1)) regulated gene, Si162 vs Ktr FC (A549): -7.06
Cdh1 (cadherin 1, type 1, E-cadherin (epithelial)) regulated gene, Si162 vs Ktr FC (A549): 1.36
Cdkn1a (cyclin-dependent kinase inhibitor 1A (p21Cip1)) regulated gene, Si162 vs Ktr FC (A549): 2.54
Cdkn3 (cyclin-dependent kinase inhibitor 3) regulated gene, Si162 vs Ktr FC (A549): -5.90
Ceacam6 (carcinoembryonic antigen-related cell adhesion molecule 6) regulated gene, Si162 vs Ktr FC (A549): 3.24
Cenpa (centromere protein A) regulated gene, Si162 vs Ktr FC (A549): -6.17
Ctsb (cathepsin B) regulated gene, Si162 vs Ktr FC (A549): 1.38
Dgka (diacylglycerol kinase, alpha 80kDa) regulated gene, Si162 vs Ktr FC (A549): 1.92
E2F1 (E2F transcription factor 1) regulated gene, Si162 vs Ktr FC (A549): -6.54
Fas (Fas (TNF receptor superfamily, member 6)) regulated gene, Si162 vs Ktr FC (A549): 2.18
Fn1 (fibronectin 1) regulated gene, Si162 vs Ktr FC (A549): 1.40
Gadd45a (growth arrest and DNA-damage-inducible, alpha) regulated gene, Si162 vs Ktr FC (A549): 1.46
Gsk3b (glycogen synthase kinase 3 beta) regulated gene, Si162 vs Ktr FC (A549): 1.51
Inpp5d (inositol polyphosphate-5-phosphatase, 145kDa) regulated gene, Si162 vs Ktr FC (A549): 2.27
Itgb4 (integrin, beta 4) regulated gene, Si162 vs Ktr FC (A549): 1.48
Jun (jun oncogene) regulated gene, Si162 vs Ktr FC (A549): 1.36
Mdm2 (Mdm2 p53 binding protein homolog (mouse)) regulated gene, Si162 vs Ktr FC (A549): 1.96
Plk1 (polo-like kinase 1 (Drosophila)) regulated gene, Si162 vs Ktr FC (A549): -2.12
Ptgs2 (prostaglandin-endoperoxide synthase 2) regulated gene, Si162 vs Ktr FC (A549): 1.27
Tgfb1i1 (transforming growth factor beta 1 induced transcript 1) regulated gene, Si162 vs Ktr FC (A549): 1.15
Tuba1a (tubulin, alpha 1a) regulated gene, Si162 vs Ktr FC (A549): 1.06
Vtn (vitronectin) regulated gene, Si162 vs Ktr FC (A549): 4.54
Significantly differentially regulated genes, downregulated (number) (A549; [1]): 472
Significantly differentially regulated genes, upregulated (number) (A549; [1]): 785
